Measured values as given in US20240390352A1, “PHARMACEUTICAL COMPOSITION FOR PREVENTING OR TREATING CANCER COMPRISING CARNITINE ACYLCARNITINE CARRIER INHIBITOR AND ANTITUMOR AGENT” (NEW CANCER CURE - BIO CO.,LTD., priority 2021, published 2024).

Assays:
Format in all cases: cell-based
HCT-116 cells = assay: SRB assay cancer cell growth rate, HCT-116; settings: relative to control (100%), 48 hours, KN510 200 μM, irinotecan 2.5 μM, 5-FU 5 μM, gemcitabine 2.5 μM, paclitaxel 10 nM, cisplatin 1 μM, alone or KN510 + anticancer drug
CAKI-1 cells = assay: SRB assay cancer cell growth rate, CAKI-1; settings: relative to control (100%), 48 hours, KN510 200 μM, irinotecan 2.5 μM, 5-FU 5 μM, gemcitabine 2.5 μM, paclitaxel 10 nM, cisplatin 1 μM, alone or KN510 + anticancer drug
ACHN cells = assay: SRB assay cancer cell growth rate, ACHN; settings: relative to control (100%), 48 hours, KN510 200 μM, irinotecan 2.5 μM, 5-FU 5 μM, gemcitabine 2.5 μM, paclitaxel 10 nM, cisplatin 1 μM, alone or KN510 + anticancer drug
UACC62 cells = assay: SRB assay cancer cell growth rate, UACC62; settings: relative to control (100%), 48 hours, KN510 200 μM, irinotecan 2.5 μM, 5-FU 5 μM, gemcitabine 2.5 μM, paclitaxel 10 nM, cisplatin 1 μM, alone or KN510 + anticancer drug
UACC257 cells = assay: SRB assay cancer cell growth rate, UACC257; settings: relative to control (100%), 48 hours, KN510 200 μM, irinotecan 2.5 μM, 5-FU 5 μM, gemcitabine 2.5 μM, paclitaxel 10 nM, cisplatin 1 μM, alone or KN510 + anticancer drug
OVCAR-8 cells = assay: SRB assay cancer cell growth rate, OVCAR-8; settings: relative to control (100%), 48 hours, KN510 200 μM, irinotecan 2.5 μM, 5-FU 5 μM, gemcitabine 2.5 μM, paclitaxel 10 nM, cisplatin 1 μM, alone or KN510 + anticancer drug
A549 cells = assay: SRB assay cancer cell growth rate, A549; settings: relative to control (100%), 48 hours, KN510 200 μM, irinotecan 2.5 μM, 5-FU 5 μM, gemcitabine 2.5 μM, paclitaxel 10 nM, cisplatin 1 μM, alone or KN510 + anticancer drug
PC-3 cells = assay: SRB assay cancer cell growth rate, PC-3; settings: relative to control (100%), 48 hours, KN510 200 μM, irinotecan 2.5 μM, 5-FU 5 μM, gemcitabine 2.5 μM, paclitaxel 10 nM, cisplatin 1 μM, alone or KN510 + anticancer drug
SR cells = assay: SRB assay cancer cell growth rate, SR; settings: relative to control (100%), 48 hours, KN510 200 μM, irinotecan 2.5 μM, 5-FU 5 μM, gemcitabine 2.5 μM, paclitaxel 10 nM, cisplatin 1 μM, alone or KN510 + anticancer drug
K562 cells = assay: SRB assay cancer cell growth rate, K562; settings: relative to control (100%), 48 hours, KN510 200 μM, irinotecan 2.5 μM, 5-FU 5 μM, gemcitabine 2.5 μM, paclitaxel 10 nM, cisplatin 1 μM, alone or KN510 + anticancer drug
[1] = test system: colon cancer cell lines HCT-116 cells and COLO-205 cells; assay: Synergistic effect of omeprazole and anticancer drug, colon cancer cell lines; settings: anticancer drug combined with omeprazole (KN510) versus each treatment alone
[2] = test system: renal cell carcinoma cell lines CAKI-1 and ACHN cells; assay: Synergistic effect of omeprazole and anticancer drug, renal cancer cell lines; settings: anticancer drug combined with omeprazole (KN510) versus each treatment alone
[3] = test system: liver cancer cell lines SK-HEP-1 cells and Huh-7 cells; assay: Synergistic effect of omeprazole and anticancer drug, liver cancer cell lines; settings: anticancer drug combined with omeprazole (KN510) versus each treatment alone
[4] = test system: glioblastoma (GBM) cell lines, U-87 MG cells and T87G cells; assay: Synergistic effect of omeprazole and anticancer drug, glioblastoma cell lines; settings: anticancer drug combined with omeprazole (KN510) versus each treatment alone
[5] = test system: melanoma cell lines UACC62 cells and UACC257 cells; assay: Synergistic effect of omeprazole and anticancer drug, melanoma cell lines; settings: anticancer drug combined with omeprazole (KN510) versus each treatment alone
[6] = test system: pancreatic ductal adenocarcinoma (PDAC) cell lines, MIA PaCa-2 cells and PANC-1 cells; assay: Synergistic effect of omeprazole and anticancer drug, pancreatic cancer cell lines; settings: anticancer drug combined with omeprazole (KN510) versus each treatment alone
[7] = test system: MKN-28 cells and AGS cells, stomach cancer cells; assay: Synergistic effect of omeprazole and anticancer drug, stomach cancer cells; settings: anticancer drug combined with omeprazole (KN510) versus each treatment alone
[8] = test system: ovarian cancer cells, OVCAR-8 cells and SK-OV-3 cells; assay: Synergistic effect of omeprazole and anticancer drug, ovarian cancer cells; settings: anticancer drug combined with omeprazole (KN510) versus each treatment alone
[9] = test system: A549 and H23 lung cancer cells; assay: Synergistic effect of omeprazole and anticancer drug, lung cancer cells; settings: anticancer drug combined with omeprazole (KN510) versus each treatment alone
[10] = test system: breast cancer cells, MDA-MB-231 cells and MCF-7 cells; assay: Synergistic effect of omeprazole and anticancer drug, breast cancer cells; settings: anticancer drug combined with omeprazole (KN510) versus each treatment alone
[11] = test system: prostate cancer cells, PC-3 cells and DU-145 cells; assay: Synergistic effect of omeprazole and anticancer drug, prostate cancer cells; settings: anticancer drug combined with omeprazole (KN510) versus each treatment alone
[12] = test system: leukemia cells, SR cells and K562 cells; assay: Synergistic effect of omeprazole and anticancer drug, leukemia cells; settings: anticancer drug combined with omeprazole (KN510) versus each treatment alone

Compound | HCT-116 growth rate average (%) (HCT-116 cells) | CAKI-1 growth rate average (%) (CAKI-1 cells) | ACHN growth rate average (%) (ACHN cells) | UACC62 growth rate average (%) (UACC62 cells) | UACC257 growth rate average (%) (UACC257 cells) | OVCAR-8 growth rate average (%) (OVCAR-8 cells) | A549 growth rate average (%) (A549 cells) | PC-3 growth rate average (%) (PC-3 cells) | SR growth rate average (%) (SR cells) | K562 growth rate average (%) (K562 cells) | synergistic effect of omeprazole and an anticancer drug in combination, colon cancer [1] | synergistic effect of omeprazole and an anticancer drug in combination, renal cell carcinoma [2] | synergistic effect of omeprazole and an anticancer drug in combination, liver cancer [3] | synergistic effect of omeprazole and an anticancer drug in combination, glioblastoma (GBM) [4] | synergistic effect of omeprazole and an anticancer drug in combination, melanoma [5] | synergistic effect of omeprazole and an anticancer drug in combination, pancreatic cancer (PDAC) [6] | synergistic effect of omeprazole and an anticancer drug in combination, stomach cancer [7] | synergistic effect of omeprazole and an anticancer drug in combination, ovarian cancer [8] | synergistic effect of omeprazole and an anticancer drug in combination, lung cancer [9] | synergistic effect of omeprazole and an anticancer drug in combination, breast cancer [10] | further results
CCc1c2c(nc3ccc(OC(=O)N4CCC(N5CCCCC5)CC4)cc13)-c1cc3c(c(=O)n1C2)COC(=O)[C@]3(O)CC [Irinotecan] | 41.85% | 44.74% | 42.20% | −35.63% | 21.87% | 4.70% | 16.54% | 33.84% | 6.26% | 46.54% | Positive effect | Positive effect | Positive effect | Positive effect | Positive effect | Positive effect | Negative effect | Negative effect | Negative effect | Positive effect | synergistic effect of omeprazole and an anticancer drug in combination, colon cancer ([1]; listed as irinotecan): significantly inhibited; synergistic effect of omeprazole and an anticancer drug in combination, renal cell carcinoma ([2]; listed as irinotecan): significantly inhibited; synergistic effect of omeprazole and an anticancer drug in combination, liver cancer ([3]; listed as irinotecan): significantly inhibited; synergistic effect of omeprazole and an anticancer drug in combination, glioblastoma (GBM) ([4]; listed as irinotecan): significantly inhibited; synergistic effect of omeprazole and an anticancer drug in combination, melanoma ([5]; listed as irinotecan): significantly inhibited; synergistic effect of omeprazole and an anticancer drug in combination, pancreatic cancer (PDAC) ([6]; listed as irinotecan): significantly inhibited; synergistic effect of omeprazole and an anticancer drug in combination, breast cancer ([10]; listed as irinotecan): significantly inhibited; synergistic effect of omeprazole and an anticancer drug in combination, prostate cancer [11]: Negative effect; synergistic effect of omeprazole and an anticancer drug in combination, leukemia [12]: Positive effect; synergistic effect of omeprazole and an anticancer drug in combination, leukemia ([12]; listed as irinotecan): significantly inhibited
CC(=O)O[C@H]1C(=O)[C@@]2(C)[C@H]([C@H](OC(=O)c3ccccc3)[C@]3(O)C[C@H](OC(=O)[C@H](O)[C@@H](NC(=O)c4ccccc4)c4ccccc4)C(C)=C1C3(C)C)[C@]1(OC(C)=O)CO[C@@H]1C[C@@H]2O [Paclitaxel] | 17.70% | 17.70% | 0.91% | 48.36% | 35.43% | 12.64% | 22.67% | 32.49% | 94.83% | 59.27% | Positive effect | Negative effect | Negative effect | Positive effect | Positive effect | Positive effect | Positive effect | Negative effect | Positive effect | Negative effect | synergistic effect of omeprazole and an anticancer drug in combination, colon cancer ([1]; listed as paclitaxel): significantly inhibited; synergistic effect of omeprazole and an anticancer drug in combination, glioblastoma (GBM) ([4]; listed as paclitaxel): significantly inhibited; synergistic effect of omeprazole and an anticancer drug in combination, melanoma ([5]; listed as paclitaxel): significantly inhibited; synergistic effect of omeprazole and an anticancer drug in combination, pancreatic cancer (PDAC) ([6]; listed as paclitaxel): significantly inhibited; synergistic effect of omeprazole and an anticancer drug in combination, stomach cancer ([7]; listed as paclitaxel): significantly inhibited; synergistic effect of omeprazole and an anticancer drug in combination, lung cancer ([9]; listed as paclitaxel): significantly inhibited; synergistic effect of omeprazole and an anticancer drug in combination, prostate cancer [11]: Negative effect; synergistic effect of omeprazole and an anticancer drug in combination, leukemia [12]: Positive effect; synergistic effect of omeprazole and an anticancer drug in combination, leukemia ([12]; listed as paclitaxel): significantly inhibited
